Source: ChEMBL document CHEMBL1153106, “Thyroid receptor agonists for the treatment of androgenetic alopecia” (Bioorg Med Chem Lett, 2010)
Activity calls are given as the source filed them. No cut-off for these calls is given here.

Key:
[1] = target: T1, Thyroid hormone receptor alpha (Homo sapiens, UniProt P10827); experiment: Binding affinity to thyroid receptor alpha
T1 sequence (P10827 whole entry): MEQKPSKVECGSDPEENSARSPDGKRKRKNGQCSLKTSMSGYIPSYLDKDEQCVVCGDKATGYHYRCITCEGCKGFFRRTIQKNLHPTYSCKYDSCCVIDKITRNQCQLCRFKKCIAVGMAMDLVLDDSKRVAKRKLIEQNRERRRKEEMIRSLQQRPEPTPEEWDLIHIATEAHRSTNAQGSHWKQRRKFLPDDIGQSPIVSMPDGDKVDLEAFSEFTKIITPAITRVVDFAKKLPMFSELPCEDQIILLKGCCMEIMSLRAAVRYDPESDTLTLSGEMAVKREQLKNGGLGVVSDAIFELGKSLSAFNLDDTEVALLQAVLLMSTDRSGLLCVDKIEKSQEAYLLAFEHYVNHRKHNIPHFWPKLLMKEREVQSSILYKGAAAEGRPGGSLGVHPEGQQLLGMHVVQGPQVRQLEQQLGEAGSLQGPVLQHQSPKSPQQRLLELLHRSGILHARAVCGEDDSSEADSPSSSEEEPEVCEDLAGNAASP

[2] = target: T2, Thyroid hormone receptor beta (Homo sapiens, UniProt P10828); experiment: Binding affinity to thyroid receptor beta
T2 sequence (P10828 whole entry): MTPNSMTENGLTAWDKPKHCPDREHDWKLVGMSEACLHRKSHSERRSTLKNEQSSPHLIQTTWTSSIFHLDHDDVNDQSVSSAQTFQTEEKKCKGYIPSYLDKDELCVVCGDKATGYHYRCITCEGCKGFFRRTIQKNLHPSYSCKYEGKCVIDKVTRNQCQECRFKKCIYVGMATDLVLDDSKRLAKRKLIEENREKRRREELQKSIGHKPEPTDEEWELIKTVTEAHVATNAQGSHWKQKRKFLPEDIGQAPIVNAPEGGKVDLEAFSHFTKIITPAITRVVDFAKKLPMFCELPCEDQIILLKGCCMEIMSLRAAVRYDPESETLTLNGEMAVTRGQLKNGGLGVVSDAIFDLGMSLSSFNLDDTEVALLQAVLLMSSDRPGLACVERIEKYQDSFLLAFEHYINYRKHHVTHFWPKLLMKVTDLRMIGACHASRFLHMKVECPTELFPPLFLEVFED

Mus musculus [3] = experiment: Hair growth stimulatory activity in C3H/HeN mouse treated 5 days a week topically to shaved lower back twice daily for 4 weeks; assay type: functional
Rattus norvegicus = experiment: Apparent volume of distribution at steady state in rat at 0.5 mg/kg, iv; assay type: ADME, organism-based; design: dose 0.5 mg/kg, route intravenous; conditions: in vivo
Mus musculus [4] = experiment: Ratio of drug to minoxidil MED for hair growth stimulatory activity in female C3H/HeN mouse at 1 mg/mL, treated topically to shaved lower back as single dose; assay type: functional, organism-based
Thyroid hormone receptor = target: T3, Thyroid hormone receptor (Homo sapiens, UniProt P10827+P10828); experiment: Binding affinity to thyroid hormone receptor in human HepG2 cells
T3 sequence (P10827 whole entry): T1 sequence (P10827 whole entry)
T3 sequence (P10828 whole entry): T2 sequence (P10828 whole entry)

[5] = Intrinsic clearance in human; assay type: ADME, organism-based; conditions: not recorded
[6] = Half life in rat hepatocytes; assay type: ADME, cell-based, Liver, Hepatocyte
Zone of skin [7] = experiment: Effect on transepidermal penetration in human cadaver skin assessed as maximal penetration rate after 28 hrs using Franz diffusion chamber; assay type: functional
[8] = Plasma clearance in rat at 0.5 mg/kg, iv; assay type: ADME, organism-based; design: dose 0.5 mg/kg, route intravenous
[9] = Drug level in bald stump-tailed monkey model after 3 months; assay type: ADME, organism-based; conditions: macaca arctoides, in vivo; read-out: Drug uptake
[10] = Metabolic stability in rat liver microsomes; assay type: ADME, Microsome
[11] = Clearance in rat blood; assay type: ADME, organism-based
[12] = Metabolic stability in […] human liver microsomes; assay type: ADME, Microsome
Zone of skin [13] = experiment: Effect on transepidermal penetration in human cadaver skin assessed as drug distributed to dermis after 40 hrs using Franz diffusion chamber; assay type: functional
[14] = Drug level in bald stump-tailed monkey model after 2 months; assay type: ADME, organism-based; conditions: macaca arctoides, in vivo; read-out: Drug uptake
[15] = Terminal half life in rat at 0.5 mg/kg, iv; assay type: ADME, organism-based; design: dose 0.5 mg/kg, route intravenous; conditions: in vivo, read-out: beta t1/2 (converted)
NIH3T3 = experiment: Phototoxicity in mouse 3T3 cells by neutral red uptake assay; assay type: cell-based
Zone of skin [16] = experiment: Effect on transepidermal penetration in human cadaver skin assessed as drug distributed to epidermis after 40 hrs using Franz diffusion chamber; assay type: functional
[17] = Half life in human hepatocytes; assay type: ADME, cell-based, Liver, Hepatocyte
[18] = Drug level in bald stump-tailed monkey model after 4 months; assay type: ADME, organism-based; conditions: macaca arctoides, in vivo; read-out: Drug uptake
[19] = Intrinsic clearance in rat; assay type: ADME, organism-based; conditions: not recorded
Zone of skin [20] = experiment: Effect on transepidermal penetration in human cadaver skin assessed as total penetration after 40 hrs using Franz diffusion chamber; assay type: functional
[21] = Clearance in human blood; assay type: ADME, organism-based
[22] = Toxicity in bald stump-tailed monkey skin after 4 months; assay type: tissue-based, Zone of skin; conditions: macaca arctoides, in vivo, 2922 h
Macaca arctoides = species: Macaca arctoides; experiment: Hair growth stimulatory activity in bal stump-tailed monkey model; assay type: functional
Mus musculus [23] = experiment: Ratio of drug to minoxidil MED for hair growth stimulatory activity in female C3H/HeN mouse at 0.1 mg/mL, treated topically to shaved lower back as single dose; assay type: functional, organism-based

**Q.** For `O=c1cnn(-c2cc(Cl)c(Oc3ccc(O)c(Cc4ccc(F)cc4)c3)c(Cl)c2)c(=O)[nH]1`, which Ki [1] is on record?
**A.** 8 nM

**Q.** And the Ki [2]?
**A.** 0.51 nM

**Q.** What about the MED (Mus musculus [3]) of the same compound?
**A.** 0.01%

**Q.** Which Vdss(app) (Rattus norvegicus) does the source give for `Cc1cc(-n2ncc(=O)[nH]c2=O)cc(C)c1Oc1ccc(O)c(Cc2ccc(F)cc2)c1` here?
**A.** 4.88 L/kg

**Q.** What about the Ki [1] of the same compound?
**A.** 3 nM

**Q.** And the Ki [2]?
**A.** 0.4 nM

**Q.** What about the Activity (Mus musculus [4]) of the same compound?
**A.** Active

**Q.** What about the EC50 (Thyroid hormone receptor) of the same compound?
**A.** 0.5 nM

**Q.** And the CLint scaled [5]?
**A.** 29 mL/min/kg

**Q.** And the half-life [6]?
**A.** 45 min

**Q.** And the Activity (Zone of skin [7])?
**A.** 0.14 microg/cm2/h

**Q.** What about the clearance [8] of the same compound?
**A.** 40 mL/min/kg

**Q.** And the concentration at 2191.5 h [9]?
**A.** < 1 ng/mL

**Q.** What about the half-life [10] of the same compound?
**A.** 40 min

**Q.** What about the clearance [11] of the same compound?
**A.** 51 mL/min/kg

**Q.** What about the half-life [12] of the same compound?
**A.** 39 min

**Q.** What about the Activity (Zone of skin [13]) of the same compound?
**A.** 0.58%

**Q.** What about the concentration at 1461 h [14] of the same compound?
**A.** < 2 ng/mL

**Q.** And the half-life [15]?
**A.** 164 min

**Q.** And the Activity (NIH3T3)?
**A.** Non-toxic

**Q.** What about the Activity (Zone of skin [16]) of the same compound?
**A.** 9.88%

**Q.** And the half-life [17]?
**A.** 119 min

**Q.** What about the concentration at 2922 h [18] of the same compound?
**A.** < 1 ng/mL

**Q.** And the CLint scaled [19]?
**A.** 149 mL/min/kg

**Q.** And the Activity (Zone of skin [20])?
**A.** 6.17%

**Q.** What about the clearance [21] of the same compound?
**A.** 15 mL/min/kg

**Q.** What about the MED (Mus musculus [3]) of the same compound?
**A.** 0.003%

**Q.** And the Activity [22]?
**A.** Non-toxic

**Q.** What about the MED (Macaca arctoides) of the same compound?
**A.** 0.1%

**Q.** What about the Activity (Mus musculus [23]) of the same compound?
**A.** Active

**Q.** For `O=C(c1cc(Oc2c(Cl)cc(-n3ncc(=O)[nH]c3=O)cc2Cl)ccc1O)N1CCc2ccccc2C1`, which Ki [1] is on record?
**A.** 126 nM

**Q.** What about the Ki [2] of the same compound?
**A.** 2 nM

**Q.** What about the MED (Mus musculus [3]) of the same compound?
**A.** 0.1%

**Q.** With `Cc1cc(NC(=O)CC(=O)O)cc(Cl)c1Oc1ccc(O)c(S(=O)(=O)CC2CCC2)c1` as the compound, how does the Ki [1] read?
**A.** 2.1 nM

**Q.** And the Ki [2]?
**A.** 0.5 nM

**Q.** What about the MED (Mus musculus [3]) of the same compound?
**A.** 0.1%

**Q.** Which results are given for `O=C(c1cc(Oc2c(Cl)cc(-n3ncc(=O)[nH]c3=O)cc2Cl)ccc1O)N1CCCCC1`?
**A.** Ki [1]: 20 nM; Ki [2]: 1 nM; MED (Mus musculus [3]): 0.1%

**Q.** For `Nc1cc(N2CCCCC2)nc(N)[n+]1[O-]` [MINOXIDIL], which MED (Mus musculus [3]) is on record?
**A.** 2.5%

**Q.** And the MED (Macaca arctoides)?
**A.** 2%

**Q.** Which Ki [1] does the source give for `Cc1cc(NC(=O)C(=O)O)cc(C)c1Oc1ccc(O)c2c1CCC2` here?
**A.** 0.7 nM

**Q.** And the Ki [2]?
**A.** 0.5 nM

**Q.** And the MED (Mus musculus [3])?
**A.** 1%
